Laboratory results reported in PubChem BioAssay (NCI).
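Here, GI50 denotes the concentration required for 50% inhibition of growth. At the TGI there is no net growth.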

Tests used:
Assay in all cases: DTP human tumour cell line panel, 384-well format
786-0 renal = system: 786-0 renal
NCI-H226 lung = system: NCI-H226 lung
IGROV1 ovarian = system: IGROV1 ovarian
MDA-MB-231 breast = system: MDA-MB-231 breast
RXF 393 renal = system: RXF 393 renal
UACC-62 melanoma = system: UACC-62 melanoma
EKVX NSCLC = system: EKVX NSCLC
OVCAR-5 ovarian = system: OVCAR-5 ovarian
HOP-62 NSCLC = system: HOP-62 NSCLC
NCI-H460 NSCLC = system: NCI-H460 NSCLC
HCT-116 colon = system: HCT-116 colon
ACHN renal = system: ACHN renal
NCI-H322M lung = system: NCI-H322M lung
SK-OV-3 ovarian = system: SK-OV-3 ovarian
OVCAR-4 ovarian = system: OVCAR-4 ovarian
HCT-15 colon = system: HCT-15 colon
OVCAR-3 ovarian = system: OVCAR-3 ovarian
SF-539 CNS = system: SF-539 CNS
PC-3 prostate = system: PC-3 prostate
KM12 colon = system: KM12 colon
OVCAR-8 ovarian = system: OVCAR-8 ovarian
U251 glioblastoma = system: U251 glioblastoma
K-562 leukemia = system: K-562 leukemia
HOP-92 NSCLC = system: HOP-92 NSCLC
A549 NSCLC = system: A549 NSCLC
CAKI-1 renal = system: CAKI-1 renal
SNB-19 CNS = system: SNB-19 CNS
A498 renal = system: A498 renal
SN12C renal = system: SN12C renal
MCF7 breast = system: MCF7 breast
SF-268 CNS = system: SF-268 CNS
LOX IMVI melanoma = system: LOX IMVI melanoma
TK-10 renal = system: TK-10 renal
NCI/ADR-RES ovarian = system: NCI/ADR-RES ovarian
SF-295 CNS = system: SF-295 CNS
UO-31 renal = system: UO-31 renal

Work on `CC(=O)O[C@H]1C(=O)[C@@]2(C)[C@H]([C@H](OC(=O)c3ccccc3)[C@]3(O)C[C@H](OC(=O)[C@H](O)[C@@H](NC(=O)c4ccccc4)c4ccccc4)C(C)=C1C3(C)C)[C@]1(OC(C)=O)CO[C@@H]1C[C@@H]2O` yielded a GI50 ([…]-0 renal) of 0.0191 µM, a TGI (786-0 renal) greater than 54.4 µM and a GI50 (NCI-H226 lung) of 0.745 µM. It also gave a TGI (NCI-H226 lung) of 19.2 µM, a TGI (IGROV1 ovarian) greater than 67.9 µM and a TGI (MDA-MB-231 breast) of 22.7 µM. It also gave a GI50 (RXF 393 renal) of less than 0.0116 µM, a TGI (RXF 393 renal) of 0.022 µM and a TGI (UACC-62 melanoma) of 18.8 µM. For the same compound, the GI50 (EKVX NSCLC) was 0.039 µM, the TGI (EKVX NSCLC) was greater than 31.6 µM and the TGI (OVCAR-5 ovarian) was greater than 83.8 µM. For the same compound, the TGI (HOP-62 NSCLC) was 14.7 µM, the TGI (NCI-H460 NSCLC) was less than 0.013 µM and the TGI (HCT-116 colon) was greater than 100 µM. For the same compound, the GI50 (ACHN renal) was 0.0611 µM, the TGI (ACHN renal) was 45.8 µM and the GI50 (NCI-H322M lung) was 0.014 µM. For the same compound, the TGI (NCI-H322M lung) was greater than 100 µM, the TGI (SK-OV-3 ovarian) was greater than 31.6 µM and the TGI (OVCAR-4 ovarian) was greater than 69.5 µM. The GI50 (HCT-15 colon) was 0.0889 µM, the TGI (HCT-15 colon) was 25 µM and the TGI (OVCAR-3 ovarian) was 0.144 µM. For the same compound, the TGI (SF-539 CNS) was 0.0123 µM, the TGI (PC-3 prostate) was greater than 100 µM and the TGI (KM12 colon) was greater than 100 µM. For the same compound, the TGI (OVCAR-8 ovarian) was 0.0102 µM, the TGI (U251 glioblastoma) was greater than 31.6 µM and the TGI (K-562 leukemia) was less than 0.013 µM. The TGI (HOP-92 NSCLC) was 28 µM, the TGI (A549 NSCLC) was greater than 46.4 µM and the GI50 (CAKI-1 renal) was 0.0507 µM. It also gave a TGI (CAKI-1 renal) greater than 100 µM, a TGI (SNB-19 CNS) greater than 71.1 µM and a GI50 (A498 renal) of 0.0265 µM. It also gave a TGI (A498 renal) of 36.3 µM, a TGI (SN12C renal) of 99.9 µM and a TGI (MCF7 breast) greater than 46.2 µM. It also gave a TGI (SF-268 CNS) of 31.4 µM, a TGI (LOX IMVI melanoma) of 37.3 µM and a GI50 (TK-10 renal) of 0.0337 µM. It also gave a TGI (TK-10 renal) of 28 µM, a GI50 (NCI/ADR-RES ovarian) of 3.1 µM and a TGI (NCI/ADR-RES ovarian) of 9.24 µM. For the same compound, the GI50 (SF-295 CNS) was 0.0114 µM, the TGI (SF-295 CNS) was 0.0364 µM and the GI50 (UO-31 renal) was 0.348 µM. The TGI (UO-31 renal) was greater than 69.3 µM.
